Experimental data reported in ChEMBL document CHEMBL1201862, “PubChem BioAssay data set” (2004).
Activity calls are given as the source filed them.

Tests used:
[1] = biological target: T1, Microphthalmia-associated transcription factor (Homo sapiens, UniProt O75030); assay: TRPM1 promoter luciferase signal decrease, dose response, MITF inhibitor project, cell-based, SK-MEL-5, cherry-picked, set 3 (AID 493073); format: functional
T1 sequence (O75030 whole entry): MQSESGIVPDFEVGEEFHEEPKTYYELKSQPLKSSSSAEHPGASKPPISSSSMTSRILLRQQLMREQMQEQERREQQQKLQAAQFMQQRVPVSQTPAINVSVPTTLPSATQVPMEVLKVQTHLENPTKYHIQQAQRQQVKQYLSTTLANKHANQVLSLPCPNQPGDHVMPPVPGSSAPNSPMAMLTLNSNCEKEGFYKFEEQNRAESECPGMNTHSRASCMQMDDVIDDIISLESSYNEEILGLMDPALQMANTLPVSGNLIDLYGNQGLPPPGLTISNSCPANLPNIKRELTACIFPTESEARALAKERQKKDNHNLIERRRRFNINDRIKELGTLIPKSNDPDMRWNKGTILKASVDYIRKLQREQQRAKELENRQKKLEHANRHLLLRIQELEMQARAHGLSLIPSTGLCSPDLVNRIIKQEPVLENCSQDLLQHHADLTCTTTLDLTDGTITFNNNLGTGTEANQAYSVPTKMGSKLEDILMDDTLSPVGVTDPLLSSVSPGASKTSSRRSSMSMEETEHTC

cells [2] = format: functional
cells [3] = assay: cells
[4] = cytotoxicity toward NIH3T3 fibroblasts, dose response, counter-screen, cell-based, ATP luminescence, mouse fibroblasts (AID 2010); format: functional;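 note: cells exposed to compound for about 90 hours before reading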
[5] = THP-1 cell cytotoxicity, dose response, cytotoxicity control for non-replicating M. tuberculosis project (AID 489025); format: functional
[6] = inhibitors of intracellular T. cruzi replication, confirmation, NIH3T3 host cells, beta-gal luminescence (AID 2044); format: functional, cell-based;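 note: intracellular parasites grown in NIH/3T3 mouse fibroblasts as host cells; luminescent beta-galactosidase reporter signal from transgenic T. cruzi replicating inside host cells; inhibitors lower the luminescence signal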
[7] = biological target: Neuropeptide Y receptor type 2 (Homo sapiens, UniProt P49146); assay: NPY-Y2 antagonist potency, selectivity check, dose response, counter-screen for NPY-Y1 antagonist project, cell-based (AID 1278); format: functional
[8] = biological target: Neuropeptide Y receptor type 1 (Homo sapiens, UniProt P25929); assay: NPY-Y1 receptor antagonist potency, dose response, cell-based (AID 1277); format: functional
[9] = biological target: Sphingosine 1-phosphate receptor 2 (Homo sapiens, UniProt O95136); assay: Dose Response Cell Based Assay for Agonists of the S1P2 Receptor of Purchased Analogues. [Related pubchem assays: 729, 843, 854, 736 ]; format: functional
[10] = biological target: T2, RNA-binding protein pos-1 (Caenorhabditis elegans, UniProt G5EF15); assay: inhibitors of POS-1/mex-3 RNA binding, dose response, biochemical, fluorescence polarization (AID 1964);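 note: purified POS-1 fused to maltose binding protein made in E. coli; potency of compounds blocking POS-1 binding to fluorescent RNA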
T2 sequence (G5EF15 whole entry): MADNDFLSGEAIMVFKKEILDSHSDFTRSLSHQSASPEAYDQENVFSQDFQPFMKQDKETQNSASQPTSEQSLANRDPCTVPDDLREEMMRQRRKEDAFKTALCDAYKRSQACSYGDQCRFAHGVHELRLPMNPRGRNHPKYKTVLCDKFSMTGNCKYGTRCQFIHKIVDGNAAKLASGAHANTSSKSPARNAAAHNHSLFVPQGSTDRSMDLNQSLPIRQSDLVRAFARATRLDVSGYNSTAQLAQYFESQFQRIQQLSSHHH

[11] = biological target: T3, Orexin/Hypocretin receptor type 1 (Homo sapiens, UniProt O43613); assay: (§1) Fluorescence-based cell-based high throughput dose response assay for antagonists of the orexin 1 receptor (OX1R; HCRTR1). [Related pubchem assays (depositor defined):AID434989, AID435008, AID463079, AID485270, AID492963, AID492964, AID492965, AID493232, AID504717, AID504718]; format: functional
T3 sequence (O43613 whole entry): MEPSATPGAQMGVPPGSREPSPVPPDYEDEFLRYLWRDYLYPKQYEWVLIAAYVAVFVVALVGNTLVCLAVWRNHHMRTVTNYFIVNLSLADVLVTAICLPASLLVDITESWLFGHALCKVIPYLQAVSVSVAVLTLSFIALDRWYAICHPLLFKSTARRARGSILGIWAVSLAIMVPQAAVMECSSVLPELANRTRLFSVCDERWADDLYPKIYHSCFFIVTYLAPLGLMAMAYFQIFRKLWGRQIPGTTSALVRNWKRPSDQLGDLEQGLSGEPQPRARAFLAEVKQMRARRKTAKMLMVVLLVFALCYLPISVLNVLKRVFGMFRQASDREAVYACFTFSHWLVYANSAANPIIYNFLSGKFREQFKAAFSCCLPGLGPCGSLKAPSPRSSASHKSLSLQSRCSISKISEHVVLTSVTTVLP

Orexin receptor type 2 [12] = biological target: T4, Orexin receptor type 2 (Homo sapiens, UniProt O43614); assay: Counterscreen assay for antagonists of the orexin 1 receptor (OX1R; HCRTR1): Fluorescence-based cell-based dose response assay for antagonists of the orexin 2 receptor (OX2R; HCRTR2), run by assay provider.; format: functional
T4 sequence (O43614 whole entry): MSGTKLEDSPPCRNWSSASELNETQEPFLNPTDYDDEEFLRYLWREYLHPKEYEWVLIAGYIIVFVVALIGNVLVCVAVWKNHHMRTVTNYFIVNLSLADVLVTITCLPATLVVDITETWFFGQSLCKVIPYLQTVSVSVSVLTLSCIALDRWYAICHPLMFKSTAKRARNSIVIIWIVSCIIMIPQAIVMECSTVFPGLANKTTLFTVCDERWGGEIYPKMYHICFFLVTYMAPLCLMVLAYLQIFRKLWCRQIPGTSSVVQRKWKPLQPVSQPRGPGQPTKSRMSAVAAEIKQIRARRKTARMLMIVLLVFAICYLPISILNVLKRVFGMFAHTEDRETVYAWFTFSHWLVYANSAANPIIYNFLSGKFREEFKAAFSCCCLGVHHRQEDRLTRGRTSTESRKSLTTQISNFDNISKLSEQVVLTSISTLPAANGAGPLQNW

BJ [13] = assay: cytotoxicity toward BJ-TERT-LT-ST fibroblasts, dose response, cell-based, RAS-independent, luminescence (AID 1935); format: functional; settings: Homo sapiens;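 note: BJ fibroblasts immortalized with TERT plus LT and ST oncogenes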
Vero = assay: host cell cytotoxicity of antiviral hits, dose response, cytotoxicity control for West Nile virus antiviral project, secondary assay (AID 1650); format: functional; settings: Chlorocebus sabaeus
BJ [14] = assay: cells; format: functional, cell-based; settings: Homo sapiens
[15] = (§2) Counterscreen for antagonists of the orexin 1 receptor (OX1R; HCRTR1): Fluorescence-based cell-based high throughput dose response assay to identify antagonists of the parental CHO cell line. [Related pubchem assays (depositor defined):AID434989, AID435008, AID463079, AID485270, AID492963, AID492964, AID492965, AID493232, AID504699, AID504701]; format: functional
[16] = biological target: T3, Orexin/Hypocretin receptor type 1; assay: as §1, with “Homogeneous Time Resolved Fluorescence (HTRF)-based” for “Fluorescence-based”; format: functional
cells [17] = format: functional, cell-based
CHO-K1 = assay: as §2, with “Homogeneous time resolved fluorescence (HTRF)-based” for “Fluorescence-based”, “cell-based” for “cell-based high throughput”, “CHO-K1” for “CHO”; format: functional; settings: Cricetulus griseus;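 note: potency for inhibition of ATP-stimulated IP1 production as antagonists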
[18] = C. albicans growth with fluconazole, confirmation, fluorescence, retest (AID 2467); format: functional, cell-based
Orexin receptor type 2 [19] = biological target: T4, Orexin receptor type 2; assay: Counterscreen assay for antagonists of the orexin 1 receptor (OX1R; HCRTR1): Homogeneous Time Resolved Fluorescence (HTRF)-based cell-based dose response assay for antagonists of the orexin 2 receptor (OX2R; HCRTR2), run by assay provider.; format: functional
[20] = cytotoxicity toward DRD oncogenic fibroblasts, dose response, cell-based, non-viral oncogenic, luminescence (AID 1934); format: functional; settings: Homo sapiens
INS1 = assay: beta cell apoptosis inhibitors, cytokine rescue, dose response, luminescence, retest (AID 449756); format: functional, cell-based; settings: Rattus norvegicus;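 note: cell death triggered by IL-1 beta plus TNF-alpha plus IFN-gamma mixture; protective hits raise ATP signal compared with cytokine alone wells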
cells [21] = format: functional, cell-based; remark: listed apart in the source
[22] = NIH-3T3 fibroblast cytotoxicity, dose response, cytotoxicity control, cell-based, fluorescence, Alamar Blue, secondary assay (AID 2327); format: functional;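 note: NIH-3T3 mouse fibroblasts cultured with fluconazole at 8 µg/mL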
BJ [23] = assay: cytotoxicity toward BJ-TERT fibroblasts, dose response, cell-based, RAS-independent, luminescence (AID 1933); format: functional; settings: Homo sapiens
BJ [24] = assay: cytotoxicity toward Ras-transformed BJeLR fibroblasts, dose response, cell-based, alamar blue fluorescence, cherrypicked samples (AID 2631); format: functional; settings: Homo sapiens;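 note: confirmatory dose-response assay in RAS-dependent BJ fibroblasts engineered with TERT, LT and ST, with cytotoxicity read by fluorescence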
[25] = biological target: T5, Zinc finger protein mex-5 (Caenorhabditis elegans, UniProt Q9XUB2); assay: MEX-5/TCR-2 RNA interaction inhibitors, dose response, biochemical, C. elegans, fluorescence polarization (AID 1960)
T5 sequence (Q9XUB2 whole entry): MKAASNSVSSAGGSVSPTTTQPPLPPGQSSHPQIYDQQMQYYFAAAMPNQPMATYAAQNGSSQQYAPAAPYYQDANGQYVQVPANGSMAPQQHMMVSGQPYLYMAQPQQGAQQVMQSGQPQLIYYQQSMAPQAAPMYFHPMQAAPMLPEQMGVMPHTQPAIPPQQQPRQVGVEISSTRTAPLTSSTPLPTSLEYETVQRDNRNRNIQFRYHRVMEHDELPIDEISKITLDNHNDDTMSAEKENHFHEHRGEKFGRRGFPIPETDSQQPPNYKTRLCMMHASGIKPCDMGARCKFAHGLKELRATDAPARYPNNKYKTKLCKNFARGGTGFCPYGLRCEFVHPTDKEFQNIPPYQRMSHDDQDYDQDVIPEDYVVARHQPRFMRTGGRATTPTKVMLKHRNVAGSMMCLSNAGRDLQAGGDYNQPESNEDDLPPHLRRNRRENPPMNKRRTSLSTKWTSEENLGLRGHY

Cytochrome P450 3A4 = Cytochrome P450 3A4 (Homo sapiens, UniProt P08684);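 note: CYP3A4 tested as one member of a cytochrome P450 panel screen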
[26] = biological target: Voltage-dependent T-type calcium channel subunit alpha-1H (Homo sapiens, UniProt O95180); format: functional;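 note: channel activity triggered by adding a high calcium stimulation buffer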
Ephrin type-A receptor 4 = Ephrin type-A receptor 4 (Mus musculus, UniProt Q03137); assay: inhibitors of EphA4 binding to KYL peptide, primary screen, biochemical, colorimetric, mouse EphA4 (AID 689); format: functional
Nonstructural protein 1 = Nonstructural protein 1 (Influenza A virus, UniProt Q194T2); format: functional, Influenza A virus (A/California/07/2009(H1N1))
[27] = biological target: T6, Calpain-2 catalytic subunit (Sus scrofa, UniProt P43367); assay: pig calpain II inhibitor potency, dose response, biochemical, fluorogenic peptide substrate (AID 1420); format: functional
T6 sequence (P43367 whole entry): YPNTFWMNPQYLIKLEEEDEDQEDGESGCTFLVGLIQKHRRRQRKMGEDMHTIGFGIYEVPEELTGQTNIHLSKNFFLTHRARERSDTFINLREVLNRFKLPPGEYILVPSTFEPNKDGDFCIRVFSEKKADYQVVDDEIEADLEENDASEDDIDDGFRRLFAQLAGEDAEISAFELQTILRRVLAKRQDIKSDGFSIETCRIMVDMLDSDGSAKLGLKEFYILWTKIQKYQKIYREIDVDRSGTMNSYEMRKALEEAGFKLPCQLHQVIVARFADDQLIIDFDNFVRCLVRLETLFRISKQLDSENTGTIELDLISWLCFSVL

Sequence of Voltage-dependent T-type calcium channel subunit alpha-1H (O95180 whole entry): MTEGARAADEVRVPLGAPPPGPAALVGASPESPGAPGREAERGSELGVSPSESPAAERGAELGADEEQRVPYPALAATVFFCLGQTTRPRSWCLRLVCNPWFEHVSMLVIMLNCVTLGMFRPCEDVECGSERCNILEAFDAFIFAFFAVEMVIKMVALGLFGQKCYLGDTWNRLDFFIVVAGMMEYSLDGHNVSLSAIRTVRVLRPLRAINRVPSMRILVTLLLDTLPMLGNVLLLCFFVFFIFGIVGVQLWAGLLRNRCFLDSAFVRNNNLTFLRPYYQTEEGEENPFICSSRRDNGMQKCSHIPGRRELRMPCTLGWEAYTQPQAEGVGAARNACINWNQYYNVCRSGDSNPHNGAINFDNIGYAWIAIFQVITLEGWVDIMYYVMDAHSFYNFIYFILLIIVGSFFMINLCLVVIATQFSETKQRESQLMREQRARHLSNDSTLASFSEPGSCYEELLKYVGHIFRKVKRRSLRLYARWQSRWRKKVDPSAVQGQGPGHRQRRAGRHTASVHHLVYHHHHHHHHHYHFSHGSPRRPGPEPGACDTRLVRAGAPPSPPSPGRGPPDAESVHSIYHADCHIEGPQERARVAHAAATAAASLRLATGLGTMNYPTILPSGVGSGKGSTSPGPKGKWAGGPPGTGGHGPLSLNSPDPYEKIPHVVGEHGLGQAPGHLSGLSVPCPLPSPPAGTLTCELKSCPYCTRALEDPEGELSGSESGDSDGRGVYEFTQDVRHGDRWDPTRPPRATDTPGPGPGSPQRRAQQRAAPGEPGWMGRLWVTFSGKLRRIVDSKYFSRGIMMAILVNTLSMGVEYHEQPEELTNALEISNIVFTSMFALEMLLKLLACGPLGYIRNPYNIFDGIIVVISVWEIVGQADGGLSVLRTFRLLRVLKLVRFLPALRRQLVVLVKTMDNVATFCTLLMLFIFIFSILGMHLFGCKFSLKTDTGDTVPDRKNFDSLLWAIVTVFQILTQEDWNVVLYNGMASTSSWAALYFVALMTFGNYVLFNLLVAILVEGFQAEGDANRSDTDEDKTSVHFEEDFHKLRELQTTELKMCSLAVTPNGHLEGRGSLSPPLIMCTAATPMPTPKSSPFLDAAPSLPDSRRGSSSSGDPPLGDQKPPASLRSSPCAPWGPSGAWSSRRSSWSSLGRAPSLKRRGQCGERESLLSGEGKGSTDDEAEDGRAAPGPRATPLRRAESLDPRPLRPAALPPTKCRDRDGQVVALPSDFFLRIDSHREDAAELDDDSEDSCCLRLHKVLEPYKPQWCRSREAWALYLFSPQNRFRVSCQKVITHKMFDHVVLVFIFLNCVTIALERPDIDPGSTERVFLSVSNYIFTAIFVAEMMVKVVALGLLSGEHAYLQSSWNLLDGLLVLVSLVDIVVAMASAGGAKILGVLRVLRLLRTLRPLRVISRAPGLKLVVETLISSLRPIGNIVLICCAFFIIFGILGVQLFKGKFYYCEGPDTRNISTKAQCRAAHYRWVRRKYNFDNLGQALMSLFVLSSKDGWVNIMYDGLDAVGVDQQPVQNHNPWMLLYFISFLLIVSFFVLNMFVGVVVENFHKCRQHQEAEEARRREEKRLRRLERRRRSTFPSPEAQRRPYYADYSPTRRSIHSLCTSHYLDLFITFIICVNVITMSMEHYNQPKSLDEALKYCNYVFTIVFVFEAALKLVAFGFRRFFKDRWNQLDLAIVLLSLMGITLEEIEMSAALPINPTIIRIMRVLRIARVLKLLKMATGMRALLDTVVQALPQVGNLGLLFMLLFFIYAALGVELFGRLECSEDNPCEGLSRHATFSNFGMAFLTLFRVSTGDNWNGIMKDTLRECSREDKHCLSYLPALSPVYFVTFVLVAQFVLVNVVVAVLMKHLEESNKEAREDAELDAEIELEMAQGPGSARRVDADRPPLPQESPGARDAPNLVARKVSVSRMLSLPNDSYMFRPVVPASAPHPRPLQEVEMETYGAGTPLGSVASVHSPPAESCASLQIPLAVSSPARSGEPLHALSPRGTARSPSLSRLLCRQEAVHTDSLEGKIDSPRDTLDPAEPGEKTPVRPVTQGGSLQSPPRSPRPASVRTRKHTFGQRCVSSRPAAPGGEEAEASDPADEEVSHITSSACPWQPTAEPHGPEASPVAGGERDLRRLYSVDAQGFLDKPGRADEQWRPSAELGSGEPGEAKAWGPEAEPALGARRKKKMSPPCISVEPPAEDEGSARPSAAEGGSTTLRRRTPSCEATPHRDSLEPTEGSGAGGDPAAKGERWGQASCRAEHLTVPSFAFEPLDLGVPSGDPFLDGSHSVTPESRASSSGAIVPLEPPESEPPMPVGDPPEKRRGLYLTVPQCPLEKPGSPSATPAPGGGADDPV
Sequence of Neuropeptide Y receptor type 2 (P49146 whole entry): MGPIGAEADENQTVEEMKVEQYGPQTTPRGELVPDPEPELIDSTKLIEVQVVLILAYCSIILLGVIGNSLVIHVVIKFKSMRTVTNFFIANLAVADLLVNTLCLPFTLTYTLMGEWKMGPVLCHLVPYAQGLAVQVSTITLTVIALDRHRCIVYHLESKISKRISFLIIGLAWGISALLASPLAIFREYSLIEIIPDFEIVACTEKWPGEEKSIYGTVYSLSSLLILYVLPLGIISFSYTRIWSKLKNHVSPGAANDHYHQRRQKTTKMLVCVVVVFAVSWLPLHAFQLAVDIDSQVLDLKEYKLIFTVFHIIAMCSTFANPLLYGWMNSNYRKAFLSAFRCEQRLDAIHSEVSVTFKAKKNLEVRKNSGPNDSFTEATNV
Sequence of Nonstructural protein 1 (Q194T2 whole entry): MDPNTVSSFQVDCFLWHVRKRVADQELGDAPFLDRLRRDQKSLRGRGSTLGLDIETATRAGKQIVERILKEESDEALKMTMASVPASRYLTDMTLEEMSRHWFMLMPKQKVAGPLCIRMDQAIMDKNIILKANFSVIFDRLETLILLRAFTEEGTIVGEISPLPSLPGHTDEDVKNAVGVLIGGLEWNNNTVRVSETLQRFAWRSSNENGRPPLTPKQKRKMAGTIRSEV
Sequence of Cytochrome P450 3A4 (P08684 whole entry): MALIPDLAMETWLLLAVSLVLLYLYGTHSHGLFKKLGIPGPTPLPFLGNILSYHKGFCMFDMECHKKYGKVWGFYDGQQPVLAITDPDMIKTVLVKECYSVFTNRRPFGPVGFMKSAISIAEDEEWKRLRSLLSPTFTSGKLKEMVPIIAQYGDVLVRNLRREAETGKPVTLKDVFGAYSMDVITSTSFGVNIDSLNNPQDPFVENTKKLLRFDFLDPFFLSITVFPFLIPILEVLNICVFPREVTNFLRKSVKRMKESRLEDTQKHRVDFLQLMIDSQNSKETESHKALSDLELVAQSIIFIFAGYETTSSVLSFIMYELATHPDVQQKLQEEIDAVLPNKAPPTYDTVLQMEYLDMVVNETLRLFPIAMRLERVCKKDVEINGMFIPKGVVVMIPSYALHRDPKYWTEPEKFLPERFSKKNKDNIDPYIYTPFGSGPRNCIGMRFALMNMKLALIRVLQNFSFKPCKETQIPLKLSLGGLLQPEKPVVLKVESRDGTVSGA
Sequence of Ephrin type-A receptor 4 (Q03137 whole entry): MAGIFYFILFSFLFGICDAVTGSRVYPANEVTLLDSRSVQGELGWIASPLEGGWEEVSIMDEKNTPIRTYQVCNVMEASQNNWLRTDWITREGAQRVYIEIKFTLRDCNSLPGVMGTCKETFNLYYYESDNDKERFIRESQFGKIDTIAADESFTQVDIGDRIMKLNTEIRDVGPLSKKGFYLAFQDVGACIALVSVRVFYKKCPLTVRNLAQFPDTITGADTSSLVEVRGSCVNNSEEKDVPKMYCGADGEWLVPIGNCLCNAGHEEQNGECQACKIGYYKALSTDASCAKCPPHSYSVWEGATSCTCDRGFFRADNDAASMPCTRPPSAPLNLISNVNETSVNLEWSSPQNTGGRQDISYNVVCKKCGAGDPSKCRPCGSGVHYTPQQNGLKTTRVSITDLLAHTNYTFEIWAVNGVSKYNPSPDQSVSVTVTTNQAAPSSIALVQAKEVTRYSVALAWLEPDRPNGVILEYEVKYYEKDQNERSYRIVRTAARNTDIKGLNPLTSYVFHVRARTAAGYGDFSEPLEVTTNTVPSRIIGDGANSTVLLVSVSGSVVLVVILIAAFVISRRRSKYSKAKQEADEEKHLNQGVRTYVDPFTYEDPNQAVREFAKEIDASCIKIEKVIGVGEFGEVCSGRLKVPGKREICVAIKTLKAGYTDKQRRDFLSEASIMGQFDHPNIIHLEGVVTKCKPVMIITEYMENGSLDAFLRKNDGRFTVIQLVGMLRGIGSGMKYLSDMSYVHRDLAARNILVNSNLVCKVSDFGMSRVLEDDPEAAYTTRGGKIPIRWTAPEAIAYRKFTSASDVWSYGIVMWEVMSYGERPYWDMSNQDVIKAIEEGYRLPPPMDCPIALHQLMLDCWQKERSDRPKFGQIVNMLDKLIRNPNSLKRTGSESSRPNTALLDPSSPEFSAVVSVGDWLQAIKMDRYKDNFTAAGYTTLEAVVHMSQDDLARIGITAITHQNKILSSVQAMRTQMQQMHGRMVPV
Sequence of Neuropeptide Y receptor type 1 (P25929 whole entry): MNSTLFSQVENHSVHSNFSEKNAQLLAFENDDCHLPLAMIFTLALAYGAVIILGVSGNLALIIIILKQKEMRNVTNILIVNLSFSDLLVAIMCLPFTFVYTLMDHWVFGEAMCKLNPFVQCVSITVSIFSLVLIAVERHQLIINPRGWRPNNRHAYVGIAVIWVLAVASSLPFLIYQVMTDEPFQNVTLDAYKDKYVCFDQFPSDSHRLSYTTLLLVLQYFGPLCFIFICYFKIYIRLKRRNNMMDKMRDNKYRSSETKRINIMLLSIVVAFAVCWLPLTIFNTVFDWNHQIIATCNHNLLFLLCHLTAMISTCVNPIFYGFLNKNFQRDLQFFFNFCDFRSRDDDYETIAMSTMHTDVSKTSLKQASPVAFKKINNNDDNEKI

Cc1cc(C)cc(OCC(=O)N/N=C/c2ccc([N+](=O)[O-])o2)c1
AC50 [1]: 7.12 µM (active)
IC50 (cells [2]): 2.7 µM (active)
EC50 (cells [3]): 0.153 µM (active)
EC50 [4]: 33.5 µM (active)
CC50 [5]: 31.5 µM (active)
EC50 [6]: < 0.1 µM (active)

Oc1ccc(-c2n[nH]cc2-c2nc3ccccc3s2)c(O)c1
IC50 [7]: > 35 µM (not active)
IC50 [8]: > 35 µM (not active)

CC(=O)c1cccc(OCC(=O)c2cc(C)n(Cc3ccccc3)c2C)c1
EC50 [9]: > 30 µM (not active)

CCN(CC)c1ccc(/C=N/NC(=O)c2ccco2)c(O)c1
EC50 [10]: > 300 µM (not active)
IC50 [11]: 4.03 µM (active)
IC50 (Orexin receptor type 2 [12]): > 88.8 µM (inactive)
EC50 (BJ [13]): 2.66 µM (active)
CC50 (Vero): 5.13 µM (active)
EC50 (BJ [14]): 3.34 µM (active)
IC50 [15]: > 49.8 µM (inactive)
IC50 [16]: 2.83 µM (active)
EC50 (cells [17]): 10.3 µM (active)
IC50 (CHO-K1): > 66.3 µM (inactive)
EC50 [18]: 0.787 µM (active)
IC50 (Orexin receptor type 2 [19]): > 50 µM (inactive)
EC50 [20]: 2.58 µM (active)
AC50 (INS1): 0.638 µM (active)
EC50 (cells [21]): 9.18 µM (active)
EC50 [22]: 2.76 µM (inconclusive)
EC50 (BJ [23]): 2.7 µM (inconclusive)
EC50 (BJ [24]): 0.966 µM (active)
EC50 [25]: > 300 µM (not active)

CCN1/C(=C/c2ccc3cccc(C)c3[n+]2CC)Sc2ccccc21
EC50 (BJ [13]): 1.17 µM (inconclusive)
EC50 (BJ [14]): 1.19 µM (active)
EC50 (cells [3]): 0.031 µM (active)
EC50 [18]: < 0.03 µM (active)
AC50 (Cytochrome P450 3A4): 8.91 µM (inconclusive)
EC50 [26]: 1.77 µM (active)
EC50 [20]: 13.6 µM (inconclusive)
IC50 (Ephrin type-A receptor 4): 44.1 µM (active)
EC50 [4]: 5.26 µM (active)
IC50 (Nonstructural protein 1): > 100 µM (active)
IC50 [27]: > 50 µM (not active)
EC50 [22]: 18.6 µM (inconclusive)
EC50 (BJ [23]): 0.37 µM (inconclusive)
EC50 [6]: < 0.1 µM (active)
